Laboratory results reported in the supplement of paper PMC11451515.

System: P12-Ichikawa
Assay: cell viability relative to DMSO control; higher = less cytotoxic
Settings: 48 h
Method in brief: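 Leukemia cells (NOMO1 or SEM, 500 cells/well; P12-Ichikawa, 1000 cells/well) were seeded in 5 μl in 1536-well plates after at least four passages of adaptation to each medium. They received library compounds in DMSO by pin dosing, 11 threefold points from 47 μM to 0.79 nM. Luminescence with CellTiter-Glo One was read after 48 h at 37°C. Viability is stated per plate relative to DMSO wells, with cell-free wells as background.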

[1] = RPMI 5 mM glucose + 10% FBS, 0.000781 µM
[2] = RPMI 5 mM glucose + 10% FBS, 0.00234 µM
[3] = RPMI 5 mM glucose + 10% FBS, 0.00702 µM
[4] = RPMI 5 mM glucose + 10% FBS, 0.0211 µM
[5] = RPMI 5 mM glucose + 10% FBS, 0.0632 µM
[6] = RPMI 5 mM glucose + 10% FBS, 0.19 µM
[7] = RPMI 5 mM glucose + 10% FBS, 0.569 µM
[8] = RPMI 5 mM glucose + 10% FBS, 1.71 µM
[9] = RPMI 5 mM glucose + 10% FBS, 5.12 µM
[10] = RPMI 5 mM glucose + 10% FBS, 15.4 µM
[11] = RPMI 5 mM glucose + 10% FBS, 46.1 µM
[12] = RPMI 5 mM glucose + 10% dialyzed FBS, 0.000781 µM
[13] = RPMI 5 mM glucose + 10% dialyzed FBS, 0.00234 µM
[14] = RPMI 5 mM glucose + 10% dialyzed FBS, 0.00702 µM
[15] = RPMI 5 mM glucose + 10% dialyzed FBS, 0.0211 µM
[16] = RPMI 5 mM glucose + 10% dialyzed FBS, 0.0632 µM
[17] = RPMI 5 mM glucose + 10% dialyzed FBS, 0.19 µM
[18] = RPMI 5 mM glucose + 10% dialyzed FBS, 0.569 µM
[19] = RPMI 5 mM glucose + 10% dialyzed FBS, 1.71 µM
[20] = RPMI 5 mM glucose + 10% dialyzed FBS, 5.12 µM
[21] = RPMI 5 mM glucose + 10% dialyzed FBS, 15.4 µM
[22] = RPMI 5 mM glucose + 10% dialyzed FBS, 46.1 µM
[23] = HPLM + 10% dialyzed FBS, 0.000781 µM
[24] = HPLM + 10% dialyzed FBS, 0.00234 µM
[25] = HPLM + 10% dialyzed FBS, 0.00702 µM
[26] = HPLM + 10% dialyzed FBS, 0.0211 µM
[27] = HPLM + 10% dialyzed FBS, 0.0632 µM
[28] = HPLM + 10% dialyzed FBS, 0.19 µM
[29] = HPLM + 10% dialyzed FBS, 0.569 µM
[30] = HPLM + 10% dialyzed FBS, 1.71 µM
[31] = HPLM + 10% dialyzed FBS, 5.12 µM
[32] = HPLM + 10% dialyzed FBS, 15.4 µM
[33] = HPLM + 10% dialyzed FBS, 46.1 µM

| Structure (SMILES) | cell viability [1] [%] | cell viability [2] [%] | cell viability [3] [%] | cell viability [4] [%] | cell viability [5] [%] | cell viability [6] [%] | cell viability [7] [%] | cell viability [8] [%] | cell viability [9] [%] | cell viability [10] [%] | cell viability [11] [%] | cell viability [12] [%] | cell viability [13] [%] | cell viability [14] [%] | cell viability [15] [%] | cell viability [16] [%] | cell viability [17] [%] | cell viability [18] [%] | cell viability [19] [%] | cell viability [20] [%] | cell viability [21] [%] | cell viability [22] [%] | cell viability [23] [%] | cell viability [24] [%] | cell viability [25] [%] | cell viability [26] [%] | cell viability [27] [%] | cell viability [28] [%] | cell viability [29] [%] | cell viability [30] [%] | cell viability [31] [%] | cell viability [32] [%] | cell viability [33] [%] |
| --- | --- | --- | --- | --- | --- | --- | --- | --- | --- | --- | --- | --- | --- | --- | --- | --- | --- | --- | --- | --- | --- | --- | --- | --- | --- | --- | --- | --- | --- | --- | --- | --- | --- |
| C#CCC(Cc1cnc2nc(N)nc(N)c2n1)c1ccc(C(=O)N[C@@H](CCC(=O)O)C(=O)O)cc1 (stereo partly specified) | 125 | 119 | 128 | 128 | 44.8 | 47.4 | 29.9 | 27.4 | 23.9 | 29 | 30.8 | 120 | 110 | 115 | 125 | 37.1 | 25.6 | 20.2 | 19.9 | 17.2 | 20.3 | 19 | – | – | – | – | – | – | – | – | – | – | – |
| COc1cccc(N(C)C(=S)Oc2ccc3c(c2)CCCC3)n1 | 96.6 | 103 | 99.1 | 103 | 104 | 92.2 | 107 | 104 | 96.9 | 95.6 | 88.1 | 94.9 | 86.6 | 104 | 96.9 | 99.7 | 94.2 | 101 | 92.1 | 96.6 | 94.8 | 81.1 | 97.6 | 97.3 | 103 | 106 | 111 | 108 | 112 | 107 | 97.6 | 107 | 101 |
| CO[C@H]1C[C@@H]2CC[C@@H](C)[C@@](O)(O2)C(=O)C(=O)N2CCCC[C@H]2C(=O)O[C@H]([C@@H](C)C[C@@H]2CC[C@@H](O)[C@H](OC)C2)CC(=O)[C@H](C)/C=C(\C)[C@@H](O)[C@@H](OC)C(=O)[C@H](C)C[C@H](C)/C=C/C=C/C=C/1C | – | – | – | – | – | – | – | – | – | – | – | – | – | – | – | – | – | – | – | – | – | – | 118 | 127 | 122 | 125 | 124 | 116 | 121 | 124 | 113 | 112 | 91.8 |
| c1ccc2c(CN3CCNCC3)cccc2c1 | 106 | 104 | 102 | 112 | 111 | 107 | 112 | 111 | 112 | 110 | 26.4 | 107 | 108 | 109 | 107 | 114 | 115 | 117 | 110 | 118 | 119 | 41.1 | 111 | 112 | 113 | 108 | 113 | 112 | 109 | 116 | 118 | 111 | 35 |
| COc1cc(N2CCC(N3CCN(C)CC3)CC2)ccc1Nc1ncc(Cl)c(Nc2ccccc2[S+](=O)([O-])C(C)C)n1 | 83.4 | 87.1 | 138 | 149 | 159 | 151 | 147 | 104 | 33.7 | 37.4 | 40.3 | 99.3 | 88.2 | 146 | 161 | 177 | 171 | 161 | 150 | 53.3 | 58 | 65.5 | 106 | 101 | 129 | 140 | 142 | 136 | 144 | 104 | 23.6 | 12.2 | 31.5 |
| NC[C@H](O)c1ccc(O)c(O)c1 | 101 | 99.5 | 94.1 | 98.9 | 105 | 96.7 | 97.6 | 92.3 | 91.2 | 90.2 | 84.4 | 89.9 | 96 | 99.9 | 88.1 | 96.1 | 97.6 | 86.3 | 93.6 | 92 | 86.5 | 81.5 | 98.9 | 100 | 99 | 103 | 98.8 | 102 | 97.4 | 92.4 | 92.8 | 92.6 | 83.5 |
| COc1cc2c(cc1OC)CN(CCc1ccc(NC(=O)c3cccc4c(=O)c5cccc(OC)c5[nH]c34)cc1)CC2 | 96.9 | 101 | 102 | 111 | 109 | 112 | 113 | 119 | 25.2 | 5.14 | 2.82 | 104 | 109 | 112 | 111 | 113 | 121 | 110 | 103 | 20 | 6.37 | 2.85 | 101 | 105 | 107 | 118 | 111 | 112 | 123 | 21.1 | 11.5 | 5 | 3.03 |
| Clc1ccc(CCC(Cn2ccnc2)Sc2c(Cl)cccc2Cl)cc1 (stereo unspecified) | 90 | 94.6 | 96 | 103 | 99.8 | 94.8 | 87.8 | 96 | 91.1 | 91.9 | 63.2 | 81.1 | 72.8 | 84.4 | 95.1 | 84.6 | 86.4 | 90.1 | 83.7 | 89.1 | 90.1 | 64.7 | 92.8 | 92.5 | 96 | 90.2 | 93.9 | 102 | 101 | 94.7 | 91.9 | 91.2 | 91.5 |
